Source: ChEMBL document CHEMBL1151533, “Dihydropyrimidine calcium channel blockers 51: bicyclic dihydropyrimidines as potent mimics of dihydropyridines” (Bioorg Med Chem Lett, 1991)

Assays:
Oryctolagus cuniculus = species: Oryctolagus cuniculus; experiment: Compound was evaluated for vasorelaxant activity determined using potassium-depolarized rabbit thoracic aorta; format: functional
Rattus norvegicus = experiment: In vivo antihypertensive activity of compound was determined at 45 umol/kg administered orally in spontaneously hypertensive rats; % reduction in blood pressure; format: functional

SMILES	IC50 (Oryctolagus cuniculus) [nM]	Reduction (Rattus norvegicus) [%]
CC1=Nc2cc(=O)n(C(=O)c3ccccc3)n2C(c2cccc([N+](=O)[O-])c2)/C1=C(/O)OC(C)C (configuration not stated)	54	
CC1=Nc2cc(=O)[nH]n2C(c2cccc([N+](=O)[O-])c2)/C1=C(/O)OC(C)C (configuration not stated)	318	
CCCNC(=O)n1c(=O)cc2n1C(c1cccc([N+](=O)[O-])c1)/C(=C(/O)OC(C)C)C(C)=N2 (configuration not stated)	23	
CCO/C(O)=C1/C(C)=Nc2ccnn2C1c1cccc(Cl)c1Cl (configuration not stated)	21	
CC1=Nc2c(C#N)cnn2C(c2cccc([N+](=O)[O-])c2)/C1=C(/O)OC(C)C (configuration not stated)	7	
COC(=O)c1cnn2c1N=C(C)/C(=C(\O)OC(C)C)C2c1cccc([N+](=O)[O-])c1 (configuration not stated)	1160	
CCO/C(O)=C1/C(C)=Nc2nccn2C1c1cccc(Cl)c1Cl (configuration not stated)	96	
CC1=Nc2cc(=O)n(Cc3ccccc3)n2C(c2cccc([N+](=O)[O-])c2)/C1=C(/O)OC(C)C (configuration not stated)	5	
CCOC(=O)N1C(=S)N=C(C)/C(=C(/O)OCC)C1c1cccc([N+](=O)[O-])c1 (configuration not stated)	3	
CCOC(=O)C1=C(C)N=C2NCCCN2C1c1cccc(Cl)c1Cl (configuration not stated)	2890	
CCO/C(O)=C1/C(C)=Nc2c(C#N)cnn2C1c1cccc(Cl)c1Cl (configuration not stated)	1.5	20
CCO/C(O)=C1/C(C)=Nc2nc(SC)nn2C1c1cccc(Cl)c1Cl (configuration not stated)	620	
CC1=Nc2c(C(N)=O)cnn2C(c2cccc([N+](=O)[O-])c2)/C1=C(/O)OC(C)C (configuration not stated)	> 1000	
CC1=Nc2cc(=O)n(S(=O)(=O)c3ccccc3)n2C(c2cccc([N+](=O)[O-])c2)/C1=C(/O)OC(C)C (configuration not stated)	10	
COC(=O)C1=C(C)NC(C)=C(C(=O)OC)C1c1ccccc1[N+](=O)[O-] [NIFEDIPINE]	2.5	33
